Measured values from patent publication EP1561465A2, “Methods of use of fluoroquinolone compounds against bacteria” (LG Life Sciences, Ltd., priority 1999, dated 2001).
Where “and” joins values, the source holds several entries; their conditions need not be identical. Identical values can stand only once. Like-named read-outs stand apart in the source and are kept apart here.

Tests used:
Type in all cases: cell-based
Escherichia coli = assay: MIC by agar dilution (NCCLS), 322 nosocomial Gram negative isolates, Athens 1998; conditions: Escherichia coli; n = 57 isolates
Proteus mirabilis = assay: as above; conditions: Proteus mirabilis; n = 57 isolates
Hafnia alvei = assay: MIC by agar dilution (NCCLS M7-A4), 288 enteropathogenic isolates, eight quinolones; conditions: Hafnia alvei (n = 32)
[1] = test system: Mycobacterium tuberculosis (MTB); assay: MIC by proportions method (NCCLS M24-T, 1995), 82 MTB strains; conditions: Mycobacterium tuberculosis; 82 MTB strains
Yersinia enterocolitica = assay: MIC by agar dilution (NCCLS M7-A4), 288 enteropathogenic isolates, eight quinolones; conditions: Yersinia enterocolitica (n = 22)
Streptococcus pneumoniae [2] = assay: MIC by NCCLS broth microdilution, 1100 Japanese clinical isolates 1997-1998; conditions: for MIC50 / MIC90 / MIC: Streptococcus pneumoniae; for MIC50: read-out: MIC50; for MIC90: read-out: MIC90; for MIC: Streptococcus pneumoniae quinolone resistant
Streptococcus pyogenes [3] = assay: MIC by NCCLS reference broth microdilution, 450 respiratory tract pathogens; conditions: Streptococcus pyogenes
Streptococcus pneumoniae [4] = assay: MIC by two-fold serial agar dilution, Sensitivity Disk agar-N (Kitasato isolates); conditions: for MIC90: read-out: MIC90; for MIC: read-out: MIC Range
Streptococcus pyogenes [5] = assay: MIC by NCCLS broth microdilution, 1100 Japanese clinical isolates 1997-1998; conditions: Streptococcus pyogenes (n=51)
[6] = test system: Staphylococcus epidermidis; assay: as above; conditions: for MIC50 / MIC90: Staphylococcus epidermidis
Providencia rettgeri = assay: as above; conditions: Providencia rettgeri (n=12)
Proteus vulgaris = assay: as above; conditions: Proteus vulgaris (n=25)
Staphylococcus aureus = assay: MIC by NCCLS reference broth microdilution, 450 respiratory tract pathogens
[7] = test system: Gram negative anaerobic pathogens and facultative anaerobic pathogens; assay: MIC by agar dilution, Brucella HK agar with 5% laked sheep blood, anaerobic reference strains
[8] = Streptococcus pneumoniae amoxicillin resistant (n=40)
[9] = Streptococcus pneumoniae amoxicillin susceptible (n=35)
[10] = Streptococcus pneumoniae erythromycin resistant (n=34)
[11] = Streptococcus pneumoniae erythromycin susceptible (n=11)
[12] = Streptococcus pyogenes (n = 100)
[13] = erythromycin resistant C phenotype [MLSB] (n = 20)
[14] = erythromycin resistant I phenotype [MLSB] (n = 20)
[15] = erythromycin resistant M phenotype (n = 20)
[16] = Staphylococcus epidermidis oxacillin resistant (n=43)
[17] = Staphylococcus epidermidis oxacillin susceptible (n=35)
[18] = β-lactamase positive and erythromycin resistant (n = 10)

CC1COc2c(N3CCN(C)CC3)c(F)cc3c(=O)c(C(=O)O)cn1c23 (stereo not shown) [Ofloxacin, ofloxacin]
0.12 mg/L: MIC50 (Yersinia enterocolitica) | MIC90 (Yersinia enterocolitica)
2 mg/L: MIC90 [1]
0.25 mg/L: MIC90 (Escherichia coli) | MIC50 (Proteus mirabilis)
0.03 mg/L: MIC50 (Hafnia alvei) | MIC90 (Hafnia alvei) | MIC Range (Hafnia alvei)
0.03 to 0.5 mg/L: MIC Range (Yersinia enterocolitica)
100%: % Susceptible (Hafnia alvei) | % Susceptible (Yersinia enterocolitica)
32 mg/L: MIC90 (Proteus mirabilis)
0.06 mg/L: MIC50 (Escherichia coli)

C[C@@H]1CN(c2c(F)c(N)c3c(=O)c(C(=O)O)cn(C4CC4)c3c2F)C[C@H](C)N1 [Sparfloxacin, sparfloxacin]
0.032 to 8 mg/L: MIC Range [6, 17]
0.25 to 8 mg/L: MIC (Streptococcus pneumoniae [4]; Streptococcus pneumoniae, 18 h, Ciprofloxacin-resistant (21))
0.032 to 16 mg/L: MIC Range [6, 16]
0.125 to 8 mg/L: MIC Range (Streptococcus pneumoniae [4]; Minocycline-resistant (37)) | MIC (Streptococcus pneumoniae [4]; Streptococcus pneumoniae, 18 h)
0.25 mg/L: MIC50 (Streptococcus pneumoniae [2]; [8]) | MIC90 (Streptococcus pneumoniae [2]; [8]) | MIC50 (Streptococcus pneumoniae [2]; [9]) | MIC50 (Streptococcus pneumoniae [2]; [10]) | MIC90 (Streptococcus pneumoniae [2]; [10]) | MIC50 (Streptococcus pneumoniae [2]; [11]) | MIC90 (Streptococcus pneumoniae [2]; [11]) | MIC50 (Streptococcus pyogenes [3]; [13]) | MIC90 (Streptococcus pyogenes [3]; [13]) | MIC90 (Streptococcus pneumoniae [4]; Streptococcus pneumoniae, Ciprofloxacin-susceptible (94)) | MIC50 (Streptococcus pneumoniae [4]; Streptococcus pneumoniae, Erythromycin-resistant (37), read-out: MIC50) | MIC50 (Streptococcus pneumoniae [4]; Streptococcus pneumoniae, Minocycline-resistant (37), read-out: MIC50) | MIC50 (Providencia rettgeri; read-out: MIC50) | MIC50 (Proteus vulgaris; read-out: MIC50) | MIC50 (Staphylococcus aureus; [18]) | MIC ([7]; Porphyromonas asaccharolytica, ATCC25260, Porphyromonas asaccharolytica ATCC25260, read-out: MIC) | MIC ([7]; Sutterella wadsworthensis, ATCC51579, Sutterella wadsworthensis ATCC51579, read-out: MIC) | MIC ([7]; Veillonella parvula, ATCC10790, Veillonella parvula ATCC10790, read-out: MIC)
2 mg/L and 0.125 mg/L: MIC [7]
0.063 to 1 mg/L: MIC (Streptococcus pneumoniae [4]; Streptococcus pneumoniae, 18 h, Penicillin-resistant (19))
16 mg/L: MIC90 (Providencia rettgeri)
≤ 0.03 mg/L: MIC ([7]; Campylobacter gracilis, JCM8538, Campylobacter gracilis JCM8538, read-out: MIC) | MIC ([7]; Capnocytophaga ochracea, Capnocytophaga ochracea GAI5586, read-out: MIC)
0.125 to 0.25 mg/L: MIC Range (Streptococcus pneumoniae [2]; [11])
0.12 to 1 mg/L: MIC (Staphylococcus aureus; β-lactamase positive (n = 20))
0.125 to 4 mg/L: MIC Range (Streptococcus pneumoniae [2]; [8])
0.25 to 1 mg/L: MIC (Streptococcus pyogenes [3]; [13]) | MIC (Streptococcus pyogenes [3]; [15]) | MIC (Streptococcus pyogenes [3]; fully susceptible (n = 20)) | MIC (Streptococcus pyogenes [3]; multi-drug resistant (n = 20)) | MIC Range (Streptococcus pyogenes [5]) | MIC (Staphylococcus aureus; [18])
0.125 mg/L: MIC50 (Streptococcus pneumoniae [4]; Ciprofloxacin-susceptible (94)) | MIC50 (Streptococcus pneumoniae [4]; Streptococcus pneumoniae) | MIC ([7]; Veillonella dispar, ATCC17748)
0.063 to 0.5 mg/L: MIC (Streptococcus pneumoniae [4]; Streptococcus pneumoniae, 18 h, Ciprofloxacin-susceptible (94))
0.06 mg/L: MIC ([7]; Campylobacter ureolyticus, NCTC10941, Bacteroides ureolyticus NCTC10941, read-out: MIC) | MIC ([7]; Desullomonas pigra DSM749, read-out: MIC)
0.063 mg/L: MIC50 [6, 17]
0.5 mg/L: MIC90 (Streptococcus pneumoniae [2]; [9]) | MIC (Streptococcus pneumoniae [2]; strain TMS1) | MIC50 (Streptococcus pyogenes [3]; [12]) | MIC50 (Streptococcus pyogenes [3]; [14]) | MIC90 (Streptococcus pyogenes [3]; [14]) | MIC50 (Streptococcus pyogenes [3]; [15]) | MIC90 (Streptococcus pyogenes [3]; [15]) | MIC50 (Streptococcus pyogenes [3]; fully susceptible (n = 20)) | MIC90 (Streptococcus pneumoniae [4]; Streptococcus pneumoniae, Erythromycin-resistant (37)) | MIC90 (Streptococcus pneumoniae [4]; Streptococcus pneumoniae, Minocycline-resistant (37)) | MIC90 (Streptococcus pneumoniae [4]; Streptococcus pneumoniae, Penicillin-resistant (19)) | MIC50 (Streptococcus pyogenes [5]; read-out: MIC50) | MIC50 (Staphylococcus aureus; Staphylococcus aureus (n = 50)) | MIC90 (Staphylococcus aureus; Staphylococcus aureus (n = 50)) | MIC50 (Staphylococcus aureus; β-lactamase negative (n = 20)) | MIC90 (Staphylococcus aureus; β-lactamase negative (n = 20)) | MIC50 (Staphylococcus aureus; β-lactamase positive (n = 20)) | MIC90 (Staphylococcus aureus; β-lactamase positive (n = 20)) | MIC90 (Staphylococcus aureus; [18]) | MIC ([7]; Bilophilla wadsworthia WAL7959, read-out: MIC) | MIC ([7]; Prevotella heparinolytica, ATCC35895, Prevotella heparinolytica ATCC35895, read-out: MIC)
0.125 to 16 mg/L: MIC Range (Providencia rettgeri)
1 mg/L: MIC90 (Streptococcus pyogenes [3]; [12]) | MIC90 (Streptococcus pyogenes [3]; fully susceptible (n = 20)) | MIC50 (Streptococcus pyogenes [3]; multi-drug resistant (n = 20)) | MIC90 (Streptococcus pyogenes [3]; multi-drug resistant (n = 20)) | MIC90 (Streptococcus pyogenes [5]) | MIC90 (Proteus vulgaris; read-out: MIC90) | MIC ([7]; Bacteroides fragilis, ATCC25285, Bacteroides fragilis ATCC25285, read-out: MIC) | MIC ([7]; Bacteroides fragilis, Bacteroides fragilis GA15562, read-out: MIC) | MIC ([7]; Bacteroides fragilis, Bacteroides fragilis GA-I0558, read-out: MIC) | MIC ([7]; Bacteroides fragilis, Bacteroides fragilis GA-I7955, read-out: MIC) | MIC ([7]; Bacteroides fragilis, Bacteroides fragilis GAI10150, read-out: MIC) | MIC ([7]; Bacteroides fragilis, Bacteroides fragilis GAI30144, read-out: MIC) | MIC ([7]; Bacteroides fragilis, NCTC10581, Bacteroides fragilis NCTC10581, read-out: MIC) | MIC ([7]; Bacteroides uniformis, ATCC8492, Bacteroides uniformis ATCC8492, read-out: MIC) | MIC ([7]; Fusobacterium necrophorum, ATCC25286, Fusobacterium necrophorum ATCC25286, read-out: MIC) | MIC ([7]; Fusobacterium nucleatum, ATCC25586, Fusobacterium nucleatum ATCC25586, read-out: MIC)
0.06 to 1 mg/L: MIC (Streptococcus pyogenes [3]; [12]) | MIC (Streptococcus pyogenes [3]; [14]) | MIC (Staphylococcus aureus; Staphylococcus aureus (n = 50)) | MIC (Staphylococcus aureus; β-lactamase negative (n = 20))
8 mg/L: MIC (Streptococcus pneumoniae [2]; strain TMS2) | MIC90 (Streptococcus pneumoniae [4]; Streptococcus pneumoniae, 18 h, Ciprofloxacin-resistant (21), ciprofloxacin MIC ≥8 µg/ml) | MIC90 [6, 16] | MIC ([7]; Fusobacterium varium, ATCC8501, Fusobacterium varium ATCC8501, read-out: MIC) | MIC ([7]; Prevotella bivia, ATCC29303, Prevotella bivia ATCC29303, read-out: MIC)
2 mg/L: MIC ([7]; Bacteroides fragilis, Bacteroides fragilis GAI30079, read-out: MIC) | MIC ([7]; Bacteroides ovatus, ATCC8483, Bacteroides ovatus ATCC8483, read-out: MIC) | MIC ([7]; Bacteroides thetaiotaomicron, ATCC29741, Bacteroides thetaiotaomicron ATCC29741, read-out: MIC) | MIC ([7]; Parabacteroides distasonis, ATCC8503, Bacteroides distasonis ATCC8503, read-out: MIC) | MIC ([7]; Phocaeicola vulgatus, ATCC8482, Bacteroides vulgatus ATCC8482, read-out: MIC) | MIC ([7]; Prevotella buccaeATCC33574, read-out: MIC) | MIC ([7]; Prevotella corporis, Prevotella corporis GAI91000, read-out: MIC) | MIC ([7]; Prevotella melaninogenica, Prevotella melaninogenica GAI5490, read-out: MIC) | MIC ([7]; Segatella oris, ATCC33573, Prevotella oris ATCC33573, read-out: MIC)
4 mg/L: MIC50 (Streptococcus pneumoniae [4]; Streptococcus pneumoniae, Ciprofloxacin-resistant (21), read-out: MIC50) | MIC50 [6, 16] | MIC90 [6, 17] | MIC ([7]; Bacteroides eggerthii, ATCC27754, Bacteroides eggerthii ATCC27754, read-out: MIC) | MIC ([7]; Hoylesella oralis, ATCC33269, Prevotella oralis ATCC33269, read-out: MIC)
0.063 to 2 mg/L: MIC Range (Proteus vulgaris)
0.032 to 4 mg/L: MIC Range (Streptococcus pneumoniae [2]; [9]) | MIC Range (Streptococcus pneumoniae [2]; [10])
